# Measured values reported in US20250041179A1, “ANTIMICROBIAL COMBINATIONS” (SYMRISE AG, priority 2021, published 2025).
# How the values were obtained:
# [1] = system: S. aureus; experiment: Preservative efficacy test (Ph. Eur., adjusted inoculum) in O/W anionic emulsion; type: cell-based, Staphylococcus aureus; conditions: substance alone 0.5% w/w
# Procedure: (§1) Material was tested in predesigned standardised cosmetic formulations either as oil-in-water anionic emulsion (Table 2), shampoo (Table 3), or wet wipe solution (Table 4). The antimicrobial actives were dissolved or mixed with the standardised cosmetic formulations, leading to the indicated test concentrations (in w/w %, cf. […] To determine synergistic indices, raw values for bacterial of fungal colony counts were used. [table] […] Steinberg D. C. (2000): Measuring Synergy. In Cosmetics & Toiletries, 115) was used: […]
# [2] = system: E. coli; experiment: as above; type: cell-based, Escherichia coli; conditions: substance alone 0.5% w/w
# Procedure: as §1
# [3] = system: C. albicans; experiment: Preservative efficacy test (Ph. Eur., adjusted inoculum) in shampoo formulation; type: cell-based, Candida albicans; conditions: substance alone 0.5% w/w
# Procedure: (§2) Preservative efficacy tests were performed according to the European Pharmacopoeia with adjusted inoculation numbers (10^6-10^7 cells of suitable bacteria or fungi). Material was tested in predesigned standardised cosmetic formulations either as oil-in-water anionic emulsion (Table 2), shampoo (Table 3), or wet wipe solution (Table 4). The antimicrobial actives were dissolved or mixed with the standardised cosmetic formulations, leading to the indicated test concentrations (in w/w %, cf. Tables 5 to 12 below). To determine synergistic indices, raw values for bacterial of fungal colony counts were used.
# (§3) [formula] • where • SI is the synergism index according to Kull • CA is the cell count for substance A (also “count A”) • CB is the cell count for substance B (also “count B”) • Cmixture is the cell count for the mixture of substance A and B (also “count mix”) • PA is the proportion of the substance A in the mixture in relation to the concentration tested alone • PB is the proportion of the substance B in the mixture in relation to the concentration tested alone
# [4] = system: P. aeruginosa; experiment: as above; type: cell-based, Pseudomonas aeruginosa; conditions: substance alone 0.5% w/w
# Procedure: as §2, §3
# [5] = system: A. brasiliensis; experiment: as above; type: cell-based, Aspergillus brasiliensis
# Procedure: as §2, §3
# [6] = system: S. aureus; experiment: as above; type: cell-based, Staphylococcus aureus
# Procedure: as §2
# (§4) To calculate the synergism between the indicated antimicrobial actives (cf. preservative efficacy tests below), the Kull equation (Kull et al., Applied Microbiology 1961, 9 (6), pp. 538-541, DOI: 10.1128/am.9.6.538-541.1961.; Steinberg D. C. (2000): Measuring Synergy. In Cosmetics & Toiletries, 115) was used:
# as §3
# [7] = system: E. coli; experiment: as above; type: cell-based, Escherichia coli; conditions: substance alone 0.5% w/w
# Procedure: as §2, §4, §3
structure (smiles),measurement,setting,value
"CCCCCCCC(=O)OCCCO [3-Hydroxypropyl caprylate, 3-hydroxypropyl caprylate]",Absolute cell counts 2 days,[1]; 2 days,2.10E+05
same,Relative cell counts 2 days,[1]; 2 days,0.0382
same,Absolute cell counts 7 days,[1]; 7 days,1.80E+02
same,Relative cell counts 7 days,[1]; 7 days,0.0000
same,Absolute cell counts 14 days,[1]; 14 days,1
same,Relative cell counts 14 days,[1]; 14 days,0.0000
same,Absolute cell counts 28 days,[1]; 28 days,1
same,Relative cell counts 28 days,[1]; 28 days,0.0000
same,Absolute cell counts 2 days,[2]; 2 days,3.30E+06
same,Relative cell counts 2 days,[2]; 2 days,0.9706
same,Absolute cell counts 7 days,[2]; 7 days,2.60E+04
same,Relative cell counts 7 days,[2]; 7 days,0.0076
same,Absolute cell counts 14 days,[2]; 14 days,1
same,Relative cell counts 14 days,[2]; 14 days,0.0000
same,Absolute cell counts 28 days,[2]; 28 days,1
same,Relative cell counts 28 days,[2]; 28 days,0.0000
same,Absolute cell counts 2 days,[3],2.10E+03
same,Relative cell counts 2 days,[3],0.0010
same,Absolute cell counts 7 days,[3],1
same,Relative cell counts 7 days,[3],0.0000
same,Absolute cell counts 14 days,[3],1
same,Relative cell counts 14 days,[3],0.0000
same,Absolute cell counts 28 days,[3],1
same,Relative cell counts 28 days,[3],0.0000
same,Absolute cell counts 2 days,[4],9.30E+04
same,Relative cell counts 2 days,[4],0.0211
same,Absolute cell counts 7 days,[4],9.50E+02
same,Relative cell counts 7 days,[4],0.0002
same,Absolute cell counts 14 days,[4],1
same,Relative cell counts 14 days,[4],0.0000
same,Absolute cell counts 28 days,[4],1
same,Relative cell counts 28 days,[4],0.0000
same,Absolute cell counts 2 days,[5]; substance alone 0.5% w/w,3.00E+06
same,Relative cell counts 2 days,[5]; substance alone 0.5% w/w,0.9091
same,Absolute cell counts 7 days,[5]; substance alone 0.5% w/w,3.80E+06
same,Relative cell counts 7 days,[5]; substance alone 0.5% w/w,1.1515
same,Absolute cell counts 14 days,[5]; substance alone 0.5% w/w,4.50E+06
same,Relative cell counts 14 days,[5]; substance alone 0.5% w/w,1.3636
same,Absolute cell counts 28 days,[5]; substance alone 0.5% w/w,8.10E+05
same,Relative cell counts 28 days,[5]; substance alone 0.5% w/w,0.2455
same,Absolute cell counts 2 days,[6]; substance alone 0.5% w/w,1
same,Relative cell counts 2 days,[6]; substance alone 0.5% w/w,0.0000
same,Absolute cell counts 7 days,[6]; substance alone 0.5% w/w,1
same,Relative cell counts 7 days,[6]; substance alone 0.5% w/w,0.0000
same,Absolute cell counts 14 days,[6]; substance alone 0.5% w/w,1
same,Relative cell counts 14 days,[6]; substance alone 0.5% w/w,0.0000
same,Absolute cell counts 28 days,[6]; substance alone 0.5% w/w,1
same,Relative cell counts 28 days,[6]; substance alone 0.5% w/w,0.0000
same,Absolute cell counts 2 days,[7],1.80E+06
same,Relative cell counts 2 days,[7],0.5806
same,Absolute cell counts 7 days,[7],2.00E+06
same,Relative cell counts 7 days,[7],0.6452
same,Absolute cell counts 14 days,[7],1.70E+06
same,Relative cell counts 14 days,[7],0.5484
same,Absolute cell counts 28 days,[7],1.10E+06
same,Relative cell counts 28 days,[7],0.3548
"O=C(O)c1ccccc1O [Salicylic Acid, salicylic acid, reference compound]",Absolute cell counts 2 days,[3],7.30E+01
same,Relative cell counts 2 days,[3],0.0000
same,Absolute cell counts 7 days,[3],1
same,Relative cell counts 7 days,[3],0.0000
same,Absolute cell counts 14 days,[3],1
same,Relative cell counts 14 days,[3],0.0000
same,Absolute cell counts 28 days,[3],1
same,Relative cell counts 28 days,[3],0.0000
same,Absolute cell counts 2 days,[4],1
same,Relative cell counts 2 days,[4],0.0000
same,Absolute cell counts 7 days,[4],1
same,Relative cell counts 7 days,[4],0.0000
same,Absolute cell counts 14 days,[4],1
same,Relative cell counts 14 days,[4],0.0000
same,Absolute cell counts 28 days,[4],1
same,Relative cell counts 28 days,[4],0.0000
same,Absolute cell counts 2 days,[7],9.50E+03
same,Relative cell counts 2 days,[7],0.0021
same,Absolute cell counts 7 days,[7],7.20E+03
same,Relative cell counts 7 days,[7],0.0016
same,Absolute cell counts 14 days,[7],1
same,Relative cell counts 14 days,[7],0.0000
same,Absolute cell counts 28 days,[7],1
same,Relative cell counts 28 days,[7],0.0000
"O=C([O-])c1ccccc1.[Na+] [Sodium Benzoate, sodium benzoate]",Absolute cell counts 2 days,[4],9.60E+03
same,Relative cell counts 2 days,[4],0.0026
same,Absolute cell counts 7 days,[4],1
same,Relative cell counts 7 days,[4],0.0000
same,Absolute cell counts 14 days,[4],1
same,Relative cell counts 14 days,[4],0.0000
same,Absolute cell counts 28 days,[4],1
same,Relative cell counts 28 days,[4],0.0000
same,Absolute cell counts 2 days,[5]; substance alone 0.2% w/w,8.00E+04
same,Relative cell counts 2 days,[5]; substance alone 0.2% w/w,0.0800
same,Absolute cell counts 7 days,[5]; substance alone 0.2% w/w,1.10E+04
same,Relative cell counts 7 days,[5]; substance alone 0.2% w/w,0.0110
same,Absolute cell counts 14 days,[5]; substance alone 0.2% w/w,3.30E+02
same,Relative cell counts 14 days,[5]; substance alone 0.2% w/w,0.0003
same,Absolute cell counts 28 days,[5]; substance alone 0.2% w/w,3.20E+02
same,Relative cell counts 28 days,[5]; substance alone 0.2% w/w,0.0003
same,Absolute cell counts 2 days,[6]; substance alone 0.2% w/w,2.20E+04
same,Relative cell counts 2 days,[6]; substance alone 0.2% w/w,0.0037
same,Absolute cell counts 7 days,[6]; substance alone 0.2% w/w,1
same,Relative cell counts 7 days,[6]; substance alone 0.2% w/w,0.0000
same,Absolute cell counts 14 days,[6]; substance alone 0.2% w/w,1
same,Relative cell counts 14 days,[6]; substance alone 0.2% w/w,0.0000
same,Absolute cell counts 28 days,[6]; substance alone 0.2% w/w,1
same,Relative cell counts 28 days,[6]; substance alone 0.2% w/w,0.0000
same,Absolute cell counts 2 days,[7],8.70E+05
same,Relative cell counts 2 days,[7],0.1933
same,Absolute cell counts 7 days,[7],9.50E+05
same,Relative cell counts 7 days,[7],0.2111
same,Absolute cell counts 14 days,[7],4.20E+05
same,Relative cell counts 14 days,[7],0.0933
same,Absolute cell counts 28 days,[7],2.40E+04
same,Relative cell counts 28 days,[7],0.0053
